Measured values as given in US7659401B2, “Thiazolo[4,5-C]pyridine derivatives” (Hoffmann-La Roche Inc., priority 2005, dated 2010).

biological target: T1, human mGlu 5a receptor (Homo sapiens, UniProt P41594); test: [3H]MPEP competition binding on membranes of EBNA cells transiently transfected with human mGlu 5a receptor; conditions: displacement of [3H]MPEP (2 nM), 1 h at 4° C., Ki=IC50/[1+L/Kd]
T1 construct: expressed in transfected cells; host or cells: EBNA cells (transient transfection); cell membrane homogenates
Protocol: The pharmacological activity of the compounds was tested using the following method: For binding experiments, cDNA encoding human mGlu 5a receptor was transiently transfected into EBNA cells using a procedure described by Schlaeger and Christensen [Cytotechnology 15:1-13 (1998)]. Cell membrane homogenates were stored at −80° C. until the day of assay where upon they were thawed and resuspended and polytronised in 15 mM Tris-HCl, 120 mM NaCl, 100 mM KCl, 25 mM CaCl2, 25 mM MgCl2 binding buffer at pH 7.4 to a final assay concentration of 20 μg protein/well.
Saturation isotherms were determined by addition of twelve [^3H]MPEP concentrations (0.04-100 nM) to these membranes (in a total volume of 200 μL) for 1 h at 4° C. Competition experiments were performed with a fixed concentration of [^3H]MPEP (2 nM) and IC50 values of test compounds evaluated using 11 concentrations (0.3-10,000 nM). Incubations were performed for 1 h at 4° C.
At the end of the incubation, membranes were filtered onto unifilter (96-well white microplate with bonded GF/C filter preincubated 1 h in 0.1% PEI in wash buffer, Packard Bio-Science, Meriden, Conn.) with a Filtermate 96 harvester (Packard BioScience) and washed 3 times with cold 50 mM Tris-HCl, pH 7.4 buffer. Nonspecific binding was measured in the presence of 10 μM MPEP. The radioactivity on the filter was counted (3 min) on a Packard Top-count microplate scintillation counter with quenching correction after addition of 45 μl of microscint 40 (Canberra Packard S.A., Zürich, Switzerland) and shaking for 20 min.
For binding experiments the Ki values of the compounds tested are given. The Ki value is defined by the following formula: Ki=IC50/[1+L/Kd] in which the IC50 values are those concentrations of the compounds tested which cause 50% inhibition of the competing radioligand ([^3H]MPEP). L is the concentration of radioligand used in the binding experiment and the Kd value of the radioligand is empirically determined for each batch of membranes prepared.

T1 sequence (P41594 21-1180 isoform P41594-2 limits assumed): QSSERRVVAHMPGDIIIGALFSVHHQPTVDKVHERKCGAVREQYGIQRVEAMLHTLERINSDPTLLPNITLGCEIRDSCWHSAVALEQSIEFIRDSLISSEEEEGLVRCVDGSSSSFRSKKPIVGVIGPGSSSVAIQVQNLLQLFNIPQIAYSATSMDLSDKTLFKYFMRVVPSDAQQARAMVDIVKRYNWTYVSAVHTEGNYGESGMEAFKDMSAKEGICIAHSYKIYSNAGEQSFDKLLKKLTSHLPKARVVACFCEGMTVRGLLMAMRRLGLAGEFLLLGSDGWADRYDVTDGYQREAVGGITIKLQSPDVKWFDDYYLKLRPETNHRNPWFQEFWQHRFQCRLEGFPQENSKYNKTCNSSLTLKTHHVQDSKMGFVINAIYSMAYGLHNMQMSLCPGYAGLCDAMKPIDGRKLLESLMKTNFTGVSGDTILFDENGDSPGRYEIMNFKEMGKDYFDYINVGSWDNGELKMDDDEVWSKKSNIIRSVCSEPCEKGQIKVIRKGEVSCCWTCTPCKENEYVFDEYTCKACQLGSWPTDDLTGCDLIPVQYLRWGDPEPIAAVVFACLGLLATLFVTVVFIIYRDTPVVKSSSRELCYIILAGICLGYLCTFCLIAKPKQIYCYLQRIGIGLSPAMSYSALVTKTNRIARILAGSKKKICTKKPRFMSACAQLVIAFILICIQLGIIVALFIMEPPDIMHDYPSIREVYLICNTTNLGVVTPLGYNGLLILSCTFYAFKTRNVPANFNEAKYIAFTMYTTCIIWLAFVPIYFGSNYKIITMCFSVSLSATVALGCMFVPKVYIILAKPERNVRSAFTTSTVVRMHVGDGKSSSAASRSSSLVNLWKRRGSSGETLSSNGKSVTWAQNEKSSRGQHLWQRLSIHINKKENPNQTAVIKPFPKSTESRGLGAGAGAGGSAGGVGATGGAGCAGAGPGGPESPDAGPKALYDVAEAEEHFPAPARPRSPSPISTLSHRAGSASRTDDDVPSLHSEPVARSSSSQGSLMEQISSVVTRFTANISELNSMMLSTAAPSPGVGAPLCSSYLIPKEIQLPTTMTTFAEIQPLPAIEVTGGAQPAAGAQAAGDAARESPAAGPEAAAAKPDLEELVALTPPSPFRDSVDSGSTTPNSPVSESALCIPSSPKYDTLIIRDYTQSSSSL

| SMILES | Ki [nM] |
| --- | --- |
| Cc1nccc(Nc2ncc(-c3cccc(S(C)(=O)=O)c3)c3sc(C)nc23)n1 [Example 17, [7-(3-Methanesulfonyl-phenyl)-2-methyl-thiazolo[4,5-c]pyridin-4-yl]-(2-methyl-pyrimidin-4-yl)-amine] | 128 |
| Cc1nc2c(Nc3ccc(F)cn3)ncc(-c3cccnc3)c2s1 [Example 4] | 40 |
| Cc1nc(Nc2ncc(-c3cccnc3)c3sc(C)nc23)cs1 [Example 2, (2-Methyl-7-pyridin-3-yl-thiazolo[4,5-c]pyridin-4-yl)-(2-methyl-thiazol-4-yl)-amine] | 37 |
| Cc1nc2c(Nc3ccn(C)n3)ncc(-c3cccnc3)c2s1 [Example 5] | 167 |
| Cc1nc2c(Nc3cccc(Cl)c3)nccc2s1 [Example 1] | 26 |

Continued, values first:

| Ki [nM] | SMILES |
| --- | --- |
| 87 | Cc1ccc(Nc2ncc(-c3cncc(F)c3)c3sc(C)nc23)nc1 [Example 20, [7-(5-Fluoro-pyridin-3-yl)-2-methyl-thiazolo[4,5-c]pyridin-4-yl]-(5-methyl-pyridin-2-yl)-amine] |
| 45 | Cc1nc(Nc2ncc(-c3ccnc(Cl)c3)c3sc(C)nc23)cs1 [Example 14, [7-(2-Chloro-pyridin-4-yl)-2-methyl-thiazolo[4,5-c]pyridin-4-yl]-(2-methyl-thiazol-4-yl)-amine] |
| 29 | Cc1csc(Nc2ncc(-c3cc(F)cc(F)c3)c3sc(C)nc23)n1 [Example 19, [7-(3,5-Difluoro-phenyl)-2-methyl-thiazolo[4,5-c]pyridin-4-yl]-(4-methyl-thiazol-2-yl)-amine] |
| 42 | Cc1csc(Nc2ncc(-c3cccnc3)c3sc(C)nc23)n1 [Example 3, (2-Methyl-7-pyridin-3-yl-thiazolo[4,5-c]pyridin-4-yl)-(4-methyl-thiazol-2-yl)-amine] |
| 61 | Cc1csc(Nc2ncc(-c3cncnc3)c3sc(C)nc23)n1 [Example 9] |
